Entries after “also recorded” stand apart in the source; their conditions may differ.
What was measured:
LSEC fenestrations [1] = experiment: SEM of LSEC fenestrations after drug treatments (Example 2, FIGS. 1-6); type: cell-based, mice; conditions: for change in fenestration porosity / change in fenestration frequency: Cytochalasin D 0.5 μg/ml, Amlodipine 20 ng/ml; for sieve plates and fenestration density on SEM images: young and old mice
Excerpt: Young and old C57B16 mice (n=3 young mice, age 3-4 and n=3 old mice, 20-24 months) were maintained under full SPF conditions and with ad libitum feeding. The study had the approval of the Sydney South West Area Health Service Animal Welfare Committee. Mice at 20-24 months are senescent. Animals were sacrificed withCO2 and livers immediately perfusion-fixed via a 23G needle inserted into the portal vein. Liver tissue was fixed with1% glutaraldehyde/4% para-formaldehyde in PBS (0.1M sucrose).
Drug treatments and dosages (shown superimposed on their corresponding image in FIGS. 1, and 2) were performed by incubating liver cells at 37° C., 5% CO2 for 30 mins using RPMI with or without dissolved drug. All images were taken by two blinded researchers using a SEM at 10,000×, scale bars of 1 μm are shown.
Each data point represents the average±SD of 8 images (as shown in FIGS. 1 and 2), 616-3312 fenestration raw data points were collected per treatment.

[2] = system: isolated LSECs (liver sinusoidal endothelial cells); experiment: SEM of fenestrations in isolated LSECs from young and old mice after 30 min drug treatment (second Example 7); type: cell-based; conditions: for Diameter / Frequency / Porosity: 30 min; for effect on porosity and fenestration frequency (summary in words): young and old LSECs
Method: 3-4 and 18-24 month old male C57/B16 mice were obtained from the Animal Resource Centre in Perth, Western Australia. Animals were housed at the ANZAC Research Institute animal house on a 12 hour light/dark cycle and provided with ad libitum access to food and water. Mice were not fasted prior to euthanasia by a single intraperitoneal injection with 100 mg/kg ketamine and 10 mg/kg xylazine in saline. The study was approved by the Animal Welfare Committee of the Sydney Local Health District and was performed in accordance with the Australian Code of Practice for the care and use of animals for scientific research (AWC 2016/009). All information provided accords with the ARRIVE guidelines.
As described previously (Cogger et al. J e52698, 2015 https://dx.doi.org/10.3791/52698), mouse LSEC isolation was performed by perfusion of the liver with collagenase. Non-parenchymal cells were removed by a two-step Percoll gradient and Kupffer cells were removed by selective adherence to plastic. LSECs (seeded at 0.5×10^6 cells/cm2) were cultured (37° C., 5% CO2) in serum free RPMI-1640 for 3.5 hours before use.
Cells were treated with various agents for 30 minutes to determine effects on fenestrations. All agents were dissolved in serum-free RPMI media. All experiments were performed in triplicate for both young and old mice. Actin was disrupted with 0.5 μg/ml cytochalasin D and lipid rafts were disrupted with 3.6 and 1.8 μg/ml 7-keocholesterol; dosages were selected. […] The serotonergic/phospholipase C pathway was promoted with DOI (0.1 μg/ml) and endothelin receptors were inhibited by bosentan (550, 55 and 5.5 ng/ml) Death receptor 4 was promoted with TRAIL (100, 10. 1, 0.1 and 0.01 ng/ml) and NAD+ was promoted with NMN (5000, 50, 10, 1 and 0.1 μg/ml).
SEM was performed as previous described (Corbin et al J Biol Chem 274: 13729-13732, 1999.). LSECs were fixed in 2.5% glutaraldehyde in 0.1M sodium cacodylate buffer, osmicated, dehydrated in graded ethanol and hexamethyl disilazane, mounted on stubs, sputter coated with platinum and examined using a JEOL 6380 Scanning Electron Microscope (JEOL Ltd, Japan). Images at 10,000× magnification were collected by a blinded observer and used to measure fenestration diameter and LSEC porosity using Image J (NIH, MD, USA). […] Fenestrations less than 30 nm and gaps more than 300 nm were excluded from analysis. Porosity was defined as the percentage of the cell membrane covered with fenestrations. Frequency was defined at the number of fenestrations per […].
Individual specifications of analyses are described in figures legends. All data are presented as mean±SD. Experimental design and analysis were performed in accordance with the APS guidelines described in Curran-Everett and Benos DJ. Adv Physiol Educ 31: 295-298, 2007.

fenestrations = conditions: young mice; cited from earlier work
[3] = system: lipid rafts and fenestrations of LSECs; experiment: 3D-SIM study of lipid rafts and fenestrations; type: cell-based
Excerpt: Sieve plates containing fenestrations are intercalated between thickened areas of membrane (lipid rafts).

[4] = system: actin cytoskeleton of LSECs; experiment: dSTORM imaging of the actin cytoskeleton; type: cell-based; conditions: young mice
Method: dSTORM imaging was performed using an in-house microscope. LSECs were prepared for dSTORM by washing twice with PBS and fixation with 4% paraformaldehyde for 30 mins. Then LSECs were washed twice with PBS, permeabilised with Triton-X for 90 secs, blocked with 5% bovine serum albumin for 1 hour, and stained with Alexa Flour phalloidin 488 (1:40) for 20 min prior to imaging. Cells were washed using PBS with 0.1% Tween and placed in OxEA buffer (30) for dSTORM visualisation and image capture. The dSTORM used 488 and 647 nm excitation from diode-pumped lasers (Coherent Inc, CA, USA). Excitation was delivered via a 1.49NA 60× oil-immersion TIRF objective (Olympus Australia, AUS). Fluorescence was captured on two separate sCMOS cameras (Imaging Development Systems GmbH, Germany). Data was collected for up to 40,000 images at around 75 fps. 5-8 whole cell images were collected by a blinded observer for each treatment dosage and processed using rapidSTORM open source software (Wolter et al. Nat Methods 9: 1040, 2012.). Each image was examined for all sieve plates and actin structures. Densitometry measurements were performed using 5-8 dSTORM images with data analysis performed using Image J software (NIH, MD, USA).

LSEC fenestrations [5] = experiment: Acute defenestration by a single intraperitoneal injection of P407; type: in vivo
Excerpt: Acute loss of fenestrations, in the absence of other ageing changes, causes dyslipidaemia and insulin resistance Ageing is a complex process leading to impairment of many cellular pathways. To test the hypothesis that age-related loss of fenestrations contributes to dyslipidaemia and insulin resistance, the inventors aimed to evaluate the impact of acute defenestration in the absence of other ageing changes. […] P407 administration caused a 10-fold increase in circulating lipoproteins, especially triglycerides and chylomicron remnants, while preventing the transfer of small chylomicrons across the LSEC.

[6] = old mice, DOI 0.1 μg/ml, 7KC 9 μM
[7] = old mice, DOI 0.1 μg/ml, 7KC 9 μM, Bosentan 0.1 μM, Sildenafil 300 ng/ml
[8] = young mice, DOI 0.1 μg/ml, 7KC 9 μM

## CC(C)CCC[C@@H](C)[C@H]1CC[C@H]2[C@@H]3C(=O)C=C4C[C@@H](O)CC[C@]4(C)[C@H]3CC[C@]12C [7-ketocholesterol]
LSEC fenestrations [1]
  diameter of fenestrations observed on SEM images: Increased diameter of fenestrations
  sieve plates and fenestration density on SEM images: promoted increased fenestrations but limited clearly definable sieve plates
LSEC fenestrations [1]; old mice, 7KC 4.5 μM, Bosentan 0.1 μM, Sildenafil 300 ng/ml, TRAIL 1 μg/ml
  change in fenestration diameter: Increased fenestration diameter
LSEC fenestrations [1]; [6]
  change in fenestration porosity: increased porosity
LSEC fenestrations [1]; [7]
  change in fenestration frequency: increased
LSEC fenestrations [1]; [8]
  change in fenestration porosity: increased porosity
[2]
  gap formation: Gap formation was apparent
  increase in fenestration diameter: 15 nm
  effect on porosity and fenestration frequency (summary in words): significant increases in porosity and fenestration frequency in both young and old LSECs
[2]; old mice
  fenestrations in LSECs from old mice: increased fenestrations
[2]; old mice, 1.8 μg/ml
  Diameter: 154.41 ± 13.07 nm
  Frequency: 2.65 ± 0.94 no/area
  Porosity: 5.19 ± 0.95 %
[2]; old mice, 3.6 μg/ml
  Diameter: 139.46 ± 17.45 nm
  Frequency: 3.15 ± 0.08 no/area
  Porosity: 5.34 ± 1.17 %
[2]; young and old mice, P<0.05
  fenestration diameter: increased fenestration diameter in both young and old mice
[2]; young mice, 1.8 μg/ml
  Diameter: 142.35 ± 8.02 nm
  Frequency: 3.59 ± 0.78 no/area
  Porosity: 6.10 ± 1.82%
[2]; young mice, 3.6 μg/ml
  Diameter: 148.59 ± 7.70 nm
  Frequency: 4.36 ± 0.93 no/area
  Porosity: 8.03 ± 1.37 %
[2]; young mice, NMN 5000 μg/ml, 7-ketocholesterol 3.6 μg/ml
  shift in frequency distribution of fenestration diameter: decreased 30-125 nm diameter fenestrations and an increase in 150-3000 sized fenestrations
fenestrations
  fenestration porosity and diameter (previously reported): increase fenestration porosity in young mice without any significant effects on fenestration diameter
[3]
  effect on fenestrations and lipid rafts: increased fenestrations and decreased rafts

## C=C1[C@@H](C)[C@H]2[C@H](Cc3ccccc3)NC(=O)[C@]23[C@H](OC(C)=O)/C=C/[C@@](C)(O)C(=O)[C@@H](C)C/C=C/[C@H]3[C@@H]1O [Cytochalasin D, cytochalasin D]
LSEC fenestrations [1]; old mice
  sieve plate grouping on SEM images: greater fenestration sieve plate grouping
LSEC fenestrations [1]; [6]
  change in fenestration porosity: increased porosity
LSEC fenestrations [1]; [7]
  change in fenestration frequency: increased
LSEC fenestrations [1]
  sieve plates and fenestration density on SEM images: promoted increased fenestration density and maintained sieve plate fenestration clustering
LSEC fenestrations [1]; young mice, Bosentan 0.1 μM, Sildenafil 300 ng/ml
  change in fenestration frequency: increased
LSEC fenestrations [1]; [8]
  change in fenestration porosity: increased porosity
[2]; old mice
  fenestrations in LSECs from old mice: increased fenestrations
[2]; old mice, 0.5 μg/ml
  Diameter: 117.04 ± 9.26 nm
  Frequency: 3.39 ± 1.07 no/area
  Porosity: 3.82 ± 1.01%
[2]
  effect on porosity and fenestration frequency (summary in words): significantly increased frequency but not porosity in young and old LSECs
[2]; young mice, 0.5 μg/ml
  Change in Porosity, Young: ↑ (ns)
  Diameter: 126.78 ± 10.68 nm
  Frequency: 4.57 ± 0.51 no/area
  Porosity: 6.05 ± 0.62 %
[2]; young mice, not significant (P=0.08)
  increase in porosity: 33%
fenestrations
  fenestration porosity and diameter (previously reported): increase fenestration porosity in young mice without any significant effects on fenestration diameter
[4]
  actin changes with drug treatments (dSTORM): Disordered actin structure; also recorded: Dense actin plasma membrane; also recorded: Stress fibres; also recorded: Single isolated fenestrations
[4]; listed as cytochalasin D
  actin changes with drug treatments (dSTORM): extensive actin staining of the plasma membrane; also recorded: loss of smooth fibres encircling the cytoplasm
[3]
  effect on fenestrations and lipid rafts: increased fenestrations and decreased rafts

## poloxamer 407 [P407]
LSEC fenestrations [5]; especially triglycerides and chylomicron remnants
  increase in circulating lipoproteins: 10 fold
LSEC fenestrations [5]; in vivo
  passage of insulin across the LSEC: prevented the passage of insulin across the LSEC
LSEC fenestrations [5]; within 24 hours of a single intraperitoneal injection
  loss of fenestrations: 30-80%

Reference: US20210161894A1, “Compositions and Methods for Modulating Liver Endothelial Cell Fenestrations” (priority 2017, published 2021)
